In patent publication US20200002303A1, “C-GLYCOSIDE COMPOUNDS USEFUL FOR TREATING DISEASE” (Fimbrion Therapeutics, Inc., priority 2016, published 2020):

These molecules were tested on UTI89 bacteria (assay: Biofilm inhibition assay with UTI89 bacteria). Conditions: read-out: Biofilm prevention IC50.
Format: cell-based
Description: The biofilm inhibition assay was performed with UTI89 bacteria as previously described (L. Cegelski, J. S. Pinkner, N. D. Hammer, C. K. Cusumano, C. S. Hung, E. Chorell, V. Aberg, J. N. Walker, P. C. Seed, F. Almqvist, M. R. Chapman, S. J. Hultgren Nature Chem. Biol. 2009, 5, 913-919). Compounds not listed were not tested.

| Compound | IC50 |
| --- | --- |
| Cc1cc(-c2cccc3cnccc23)ccc1[C@@H](O)[C@H]1O[C@H](CO)[C@@H](O)[C@H](O)[C@@H]1O [Example 1, (2R,3S,4S,5S,6R)-2-((R)-hydroxy(4-(isoquinolin-5-yl)-2-methylphenyl)methyl)-6-(hydroxymethyl)tetrahydro-2H-pyran-3,4,5-triol] | 600 nM |
| Cc1cc(-c2ccc3cc[nH]c(=O)c3c2)ccc1[C@@H](O)[C@H]1O[C@H](CO)[C@@H](O)[C@H](O)[C@@H]1O [Example 2, 7-(4-((R)-hydroxy((2R,3S,4S,5S,6R)-3,4,5-trihydroxy-6-(hydroxymethyl)tetrahydro-2H-pyran-2-yl)methyl)-3-methylphenyl)isoquinolin-1 (2H)-one] | 30 nM |

These molecules were tested against T1, FimH (Escherichia coli, UniProt Q1R2J4) (assay: not given). Conditions: concentration reducing bacterial agglutination of guinea pig red blood cells by greater than 90%; UTI89 bacteria.
T1 construct: performed with UTI89 bacteria and guinea pig red blood cells; endogenous in cells; host or cells: UTI89 bacteria (whole cells, type 1 piliated)
Format: cell-based
Description: The hemagglutination inhibition (HAI) assay was performed with UTI89 bacteria and guinea pig red blood cells, as previously described (S. J. Hultgren, W. R. Schwan, A. J. Schaeffer, J. L. Duncan Infect. Immun. 1986, 54, 613-620).

| Compound | HAI titer EC>90 |
| --- | --- |
| Cc1cc(-c2cccc3cnccc23)ccc1[C@@H](O)[C@H]1O[C@H](CO)[C@@H](O)[C@H](O)[C@@H]1O [Example 1, (2R,3S,4S,5S,6R)-2-((R)-hydroxy(4-(isoquinolin-5-yl)-2-methylphenyl)methyl)-6-(hydroxymethyl)tetrahydro-2H-pyran-3,4,5-triol] | 0.125 µM |
| Cc1cc(-c2ccc3cc[nH]c(=O)c3c2)ccc1[C@@H](O)[C@H]1O[C@H](CO)[C@@H](O)[C@H](O)[C@@H]1O [Example 2, 7-(4-((R)-hydroxy((2R,3S,4S,5S,6R)-3,4,5-trihydroxy-6-(hydroxymethyl)tetrahydro-2H-pyran-2-yl)methyl)-3-methylphenyl)isoquinolin-1 (2H)-one] | 0.006 µM |
| Cc1cc(-c2ccc3ccn(C(C)C)c(=O)c3c2)ccc1[C@@H](O)[C@H]1O[C@H](CO)[C@@H](O)[C@H](O)[C@@H]1O [Example 31, 7-(4-((R)-Hydroxy ((2R,3S,4S,5S,6R)-3,4,5-trihydroxy-6-(hydroxymethyl)-tetrahydro-2H-pyran-2-yl)methyl)-3-methylphenyl)-2-isopropylisoquinolin-1 (2H)-one] | 0.006 µM |
| Cc1cc(-c2ccc3c(c2)C(=O)N(C(C)C)CC3)ccc1[C@@H](O)[C@H]1O[C@H](CO)[C@@H](O)[C@H](O)[C@@H]1O [Example 32, 7-(4-((R)-Hydroxy ((2R,3S,4S,5S,6R)-3,4,5-trihydroxy-6-(hydroxymethyl)-tetrahydro-2H-pyran-2-yl)methyl)-3-methylphenyl)-2-isopropyl-3,4-dihydroisoquinolin-1 (2H)-one] | 0.006 µM |
| O=C1NCCc2ccc(-c3ccc([C@@H](O)[C@H]4O[C@H](CO)[C@@H](O)[C@H](O)[C@@H]4O)c(C(F)(F)F)c3)cc21 [Example 33, 7-(4-((R)-Hydroxy ((2R,3S,4S,5S,6R)-3,4,5-trihydroxy-6-(hydroxymethyl)-tetrahydro-2H-pyran-2-yl)methyl)-3-(trifluoromethyl)phenyl)-3,4-dihydroisoquinolin-1 (2H)-one] | 0.006 µM |
| O=C1NCCc2ccc(-c3ccc([C@H](O)[C@H]4O[C@H](CO)[C@@H](O)[C@H](O)[C@@H]4O)c(C(F)(F)F)c3)cc21 [Example 34, 7-(4-((S)-hydroxy ((2R,3S,4S,5S,6R)-3,4,5-trihydroxy-6-(hydroxymethyl)tetrahydro-2H-pyran-2-yl)methyl)-3-(trifluoromethyl)phenyl)-3,4-dihydroisoquinolin-1 (2H)-one] | 3 µM |
| CNC(=O)c1cncc(-c2ccc([C@@H](O)[C@H]3O[C@H](CO)[C@@H](O)[C@H](O)[C@@H]3O)c(C)c2)c1 [Example 35, 5-(4-((R)-Hydroxy ((2R,3S,4S,5S,6R)-3,4,5-trihydroxy-6-(hydroxymethyl)-tetrahydro-2H-pyran-2-yl)methyl)-3-methylphenyl)-N-methylnicotinamide] | 0.01 µM |
| Cc1cc(-c2cn3ccccc3n2)ccc1[C@@H](O)[C@H]1O[C@H](CO)[C@@H](O)[C@H](O)[C@@H]1O [Example 36, (2R,3S,4S,5S,6R)-2-((R)-Hydroxy (4-(imidazo[1,2-a]pyridin-2-yl)-2-methylphenyl)methyl)-6-(hydroxymethyl)-tetrahydro-2H-pyran-3,4,5-triol] | 0.019 µM |
| Cc1cc(-c2cccc(C(=O)Nc3ccccn3)c2)ccc1[C@@H](O)[C@H]1O[C@H](CO)[C@@H](O)[C@H](O)[C@@H]1O [Example 37, 4′-((R)-Hydroxy ((2R,3S,4S,5S,6R)-3,4,5-trihydroxy-6-(hydroxymethyl)-tetrahydro-2H-pyran-2-yl)methyl)-5′-methyl-N-(pyridin-2-yl)biphenyl-3-carboxamide] | 0.012 µM |
| CNC(=O)c1cc(C(=O)NC)cc(-c2ccc([C@@H](O)[C@H]3O[C@H](CO)[C@@H](O)[C@H](O)[C@@H]3O)c(C)c2)c1 [Example 38, 4′-((R)-Hydroxy ((2R,3S,4S,5S,6R)-3,4,5-trihydroxy-6-(hydroxymethyl)-tetrahydro-2H-pyran-2-yl)methyl)-N^3,N^5,3′-trimethylbiphenyl-3,5-dicarboxamide] | 0.007 µM |
| CNC(=O)c1cccc(-c2ccc([C@@H](O)[C@H]3O[C@H](CO)[C@@H](O)[C@H](O)[C@@H]3O)c(C(F)(F)F)c2)c1 [Example 39, 4′-((R)-Hydroxy ((2R,3S,4S,5S,6R)-3,4,5-trihydroxy-6-(hydroxymethyl)-tetrahydro-2H-pyran-2-yl)methyl)-N-methyl-5′-(trifluoromethyl)biphenyl-3-carboxamide] | 0.015 µM |
| Cc1cc(-c2cccc(C(=O)N(C)C)c2)ccc1[C@@H](O)[C@H]1O[C@H](CO)[C@@H](O)[C@H](O)[C@@H]1O [Example 41, 4′-((R)-Hydroxy ((2R,3S,4S,5S,6R)-3,4,5-trihydroxy-6-(hydroxymethyl)-tetrahydro-2H-pyran-2-yl)methyl)-N,N,5′-trimethylbiphenyl-3-carboxamide] | 0.057 µM |
| CNC(=O)c1cc(C#N)cc(-c2ccc([C@@H](O)[C@H]3O[C@H](CO)[C@@H](O)[C@H](O)[C@@H]3O)c(C)c2)c1 [Example 42, 5-Cyano-4′-((R)-hydroxy ((2R,3S,4S,5S,6R)-3,4,5-trihydroxy-6-(hydroxymethyl)-tetrahydro-2H-pyran-2-yl)methyl)-N,5′-dimethylbiphenyl-3-carboxamide] | 0.006 µM |
| CNC(=O)c1cc(-c2ccc([C@@H](O)[C@H]3O[C@H](CO)[C@@H](O)[C@H](O)[C@@H]3O)c(C)c2)ccc1C#N [Example 43, 4-Cyano-4′-((R)-hydroxy ((2R,3S,4S,5S,6R)-3,4,5-trihydroxy-6-(hydroxymethyl)-tetrahydro-2H-pyran-2-yl)methyl)-N,5′-dimethylbiphenyl-3-carboxamide] | 0.006 µM |
| CNC(=O)c1cccc(-c2ccc([C@@H](N=[N+]=[N-])[C@H]3O[C@H](CO)[C@@H](O)[C@H](O)[C@@H]3O)c(C)c2)c1 [Example 44, 4′-((R)-azido((2R,3S,4R,5S,6R)-3,4,5-trihydroxy-6-(hydroxymethyl)tetrahydro-2H-pyran-2-yl)methyl)-N,3′-dimethylbiphenyl-3-carboxamide] | 0.062 µM |
| CNC(=O)c1cccc(-c2ccc([C@@H](O)[C@H]3O[C@H](CO)[C@@H](O)[C@H](O)[C@@H]3O)c(Cl)c2)c1 [Example 45, 3′-chloro-4′-((R)-hydroxy((2R,3S,4S,5S,6R)-3,4,5-trihydroxy-6-(hydroxymethyl)tetrahydro-2H-pyran-2-yl)methyl)-N-methylbiphenyl-3-carboxamide] | 0.047 µM |
| Cc1cc(-c2ccc(C#N)cc2)ccc1[C@@H](O)[C@H]1O[C@H](CO)[C@@H](O)[C@H](O)[C@@H]1O [Example 46, 4′-((R)-hydroxy((2R,3S,4S,5S,6R)-3,4,5-trihydroxy-6-(hydroxymethyl)tetrahydro-2H-pyran-2-yl)methyl)-3′-methylbiphenyl-4-carbonitrile] | 0.053 µM |
| Cc1cc(N=[N+]=[N-])ccc1[C@@H](O)[C@H]1O[C@H](CO)[C@@H](O)[C@H](O)[C@@H]1O [Example 47, (2R,3S,4S,5S,6R)-2-((R)-(4-azido-2-methylphenyl)(hydroxy)methyl)-6-(hydroxymethyl)tetrahydro-2H-pyran-3,4,5-triol] | 0.25 µM |
| Cc1cc(-n2cc(-c3ccccc3)nn2)ccc1[C@@H](O)[C@H]1O[C@H](CO)[C@@H](O)[C@H](O)[C@@H]1O [Example 48, (2R,3S,4S,5S,6R)-2-((R)-hydroxy(2-methyl-4-(4-phenyl-1H-1,2,3-triazol-1-yl)phenyl)methyl)-6-(hydroxymethyl)tetrahydro-2H-pyran-3,4,5-triol] | 0.016 µM |
| Cc1cc(-n2cc(-c3cccnc3)nn2)ccc1[C@@H](O)[C@H]1O[C@H](CO)[C@@H](O)[C@H](O)[C@@H]1O [Example 49, (2R,3S,4S,5S,6R)-2-((R)-hydroxy(2-methyl-4-(4-(pyridin-3-yl)-1H-1,2,3-triazol-1-yl)-phenyl)methyl)-6-(hydroxymethyl)tetrahydro-2H-pyran-3,4,5-triol] | 0.015 µM |
| Cc1cc(-c2cccc(C#N)c2)ccc1[C@@H](O)[C@H]1O[C@H](CO)[C@@H](O)[C@H](O)[C@@H]1O [Example 51, 4′-((R)-hydroxy((2R,3S,4S,5S,6R)-3,4,5-trihydroxy-6-(hydroxymethyl)tetrahydro-2H-pyran-2-yl)methyl)-3′-methylbiphenyl-3-carbonitrile] | 0.026 µM |

These molecules were tested against T2, FimHL (Escherichia coli, UniProt P08191) (assay: Differential scanning fluorimetry (DSF) with purified FimHL). Conditions: FimHL 10 μM with mannoside 100 μM, SYPRO Orange, HEPES pH 7.5; Tm from Boltzmann fit.
T2 construct: Purified FimHL (10 μM) in the absence or presence of mannoside (100 μM)
Format: binding
Description: Purified FimHL (10 μM) in the absence or presence of mannoside (100 μM) was combined with 5×SYPRO Orange in a 50 μl reaction mixture buffered in 20 mM HEPES pH 7.5, 150 mM NaCl (HBS) and 0.4% DMSO. Binding equilibria were established by allowing the reaction mixtures to incubate at 23° C. for 30 min. These reaction mixtures were then placed in 96-well clear-bottom PCR plates and subjected to a melt curve from 20-90° C. in 0.5° C. increments of 15 seconds, each followed by a fluorescence read of the “HEX” channel in a Bio-Rad CFX96 thermocycler (Bio-Rad, Hercules, Calif.). Melt curves were fitted to the Boltzmann equation (y=A2+(A1−A2)/(1+exp((x−xo)/dx)) where xo is the Tm) to determine the melting temperature (Tm) using GraphPad Prism 6 (San Diego Calif.). Melting temperatures are represented as the mean and standard error of two biological replicates, each of which consisted of three technical replicates. Compounds not listed were not tested.

| Compound | DSF Melting Temp |
| --- | --- |
| Cc1cc(-c2cccc3cnccc23)ccc1[C@@H](O)[C@H]1O[C@H](CO)[C@@H](O)[C@H](O)[C@@H]1O [Example 1, (2R,3S,4S,5S,6R)-2-((R)-hydroxy(4-(isoquinolin-5-yl)-2-methylphenyl)methyl)-6-(hydroxymethyl)tetrahydro-2H-pyran-3,4,5-triol] | 74.6 °C |
| Cc1cc(-c2ccc3cc[nH]c(=O)c3c2)ccc1[C@@H](O)[C@H]1O[C@H](CO)[C@@H](O)[C@H](O)[C@@H]1O [Example 2, 7-(4-((R)-hydroxy((2R,3S,4S,5S,6R)-3,4,5-trihydroxy-6-(hydroxymethyl)tetrahydro-2H-pyran-2-yl)methyl)-3-methylphenyl)isoquinolin-1 (2H)-one] | 77.5 °C |
